According to ChEMBL document CHEMBL1121895, “Pyrazolodiazepines. 3. 4-Aryl-1,6,7,8-tetrahydro-1,3-dialkylpyrazolo[3,4-e][1,4]diazepines as antidepressant agents” (1981):

Experiments:
Format in all cases: functional
[1] = species on record: Rattus norvegicus; assay: Time-related potentiation of methamphetamine-induced anorexia in rats at the lowest active dose.; conditions: read-out: MED
[2] = species on record: Rattus norvegicus; assay: Potentiation of Methamphetamine effect for intracranial self stimulation(SS) in rats
[3] = system: Rattus norvegicus; assay: Amount of milk ingested after the 120 min methamphetamine-challenges, produced by the compound at 1.25 mg/kg in fasted rats
[4] = system: Rattus norvegicus; assay: Amount of milk ingested after the 120 min methamphetamine-challenges, produced by the compound at 10 mg/kg in fasted rats
[5] = system: Rattus norvegicus; assay: Amount of milk ingested after the 120 min methamphetamine-challenges, produced by the compound at 2.5 mg/kg in fasted rats
[6] = system: Rattus norvegicus; assay: Amount of milk ingested after the 120 min methamphetamine-challenges, produced by the compound at 5 mg/kg in fasted rats
[7] = system: Rattus norvegicus; assay: Amount of milk ingested after the 15 min methamphetamine-challenges, produced by the compound at 0.625 mg/kg in fasted rats
[8] = system: Rattus norvegicus; assay: Amount of milk ingested after the 15 min methamphetamine-challenges, produced by the compound at 1.25 mg/kg in fasted rats
[9] = system: Rattus norvegicus; assay: Amount of milk ingested after the 15 min methamphetamine-challenges, produced by the compound at 10 mg/kg in fasted rats
[10] = system: Rattus norvegicus; assay: Amount of milk ingested after the 15 min methamphetamine-challenges, produced by the compound at 2.5 mg/kg in fasted rats
[11] = system: Rattus norvegicus; assay: Amount of milk ingested after the 15 min methamphetamine-challenges, produced by the compound at 5 mg/kg in fasted rats
[12] = system: Rattus norvegicus; assay: Amount of milk ingested after the 120 min methamphetamine-challenges, produced by the compound at 0.625 mg/kg in fasted rats

Row | Structure (SMILES) | minimal effective dose [1] [mg/kg] | also measured
1 | Cc1nn(C)c2c1C(c1ccccc1)=NCC1CCCCN21 (configuration not stated) | 5 | 
2 | Cc1nn(C)c2c1C(c1cccc(Cl)c1)=NCCN2C | 0.63 | 
3 | Cc1cccc(C2=NCCNc3c2c(C)nn3C)c1 | 2.5 | Dose [2]: 10 mg/kg
4 | Cc1nn(C)c2c1C(c1cccc(Cl)c1)=NC(C)CN2 (configuration not stated) | 0.63 | 
5 | CN(C)CCCN1c2ccccc2CCc2ccccc21 [IMIPRAMINE] | 2.5 | Dose [2]: 1.25 mg/kg; Amount [3]: 4.8 mL; Amount [4]: 0 mL; Amount [5]: 2.2 mL; Amount [6]: 0.1 mL; Amount [7]: 4 mL; Amount [8]: 2.7 mL; Amount [9]: 0 mL; Amount [10]: 3.3 mL; Amount [11]: 0.5 mL; Amount [12]: 3.3 mL
6 | Cc1nn(C)c2c1C(c1cccc(Cl)c1C)=NCCN2 | 1.25 | Dose [2]: 5 mg/kg
7 | Cc1nn(C)c2c1C(c1cccc(N=[N+]=[N-])c1)=NCCN2 | 2.5 | 
8 | Cc1nn(C)c2c1C(c1ccccc1Cl)=NCCN2 | 2.5 | 
9 | CCc1nn(C)c2c1C(c1cccc(F)c1)=NCCN2CCCN(C)C | > 10 | 
10 | Cc1nn(C)c2c1C(c1ccc(O)cc1)=NCCN2C | 2.5 | Dose [2]: 5 mg/kg
11 | Cc1nn(C)c2c1C(c1ccccc1Cl)=NCCN2C | 2.5 | 
12 | Cc1ccc(C)c(C2=NCCNc3c2c(C)nn3C)c1 | > 10 | 
13 | Cc1nn(C)c2c1C(c1ccccc1)=NCCN2.Cl | 2.5 | 
14 | Cc1nn(C)c2c1C(c1ccc(Cl)c(Cl)c1)=NCCN2 | 2.5 | 
15 | Cc1nn(C)c2c1C(c1cccc(Br)c1)=NCCN2 | 0.63 | Dose [2]: 5 mg/kg
16 | Cc1nn(C)c2c1C(c1ccccc1)=NCCN2C | 2.5 | Dose [2]: >10 mg/kg
17 | Cc1n[nH]c2c1C(c1cccc(Cl)c1)=NCCN2 | 2.5 | 
18 | COc1ccc(C2=NCCNc3c2c(C)nn3C)cc1 | > 10 | 
19 | Cc1cccc(C2=NCCN(CCCN(C)C)c3c2c(C)nn3C)c1 | > 10 | 
20 | Cc1nn(C)c2c1C(c1cccc(Cl)c1)=[N+]([O-])CCN2 | > 10 | 
21 | Cc1nn(C)c2c1C(c1cccc([N+](=O)[O-])c1)=NCCN2 | 5 | 
22 | CCc1nn(C)c2c1C(c1cccc(Br)c1)=NCCN2 | 1.25 | Dose [2]: 5 mg/kg
23 | Cc1nn(C)c2c1C(c1cccc(Cl)c1)=NCCN2CCN1CCCC1 | > 10 | 
24 | Cc1nn(C)c2c1C(c1ccccc1Cl)=NCC(C#N)N2 (configuration not stated) | > 10 | 
25 | CCN1CCN=C(c2cccc(Cl)c2)c2c(C)nn(C)c21 | 0.63 | 
